The subject of one data set is malaria. Put plainly: In vivo antimalarial activity. Details: species or system rodents. The note with it: sc.
Another data set relates to 60 cell line panel. The note with it: 60 line panel, earlier studies; cited from earlier work.
For data set [1] the following is noted: cited from earlier work.
Data set [2] has as its system Ehrlich ascites tumor (EAT) cells. The note with it: MTT, growth inhibition; cited from earlier work.
Data set [3] concerns P. vivax and P. falciparum. The note with it: cited from earlier work.
A further data set relates to P. berghei. The note with it: P. berghei-infected mice, parasitemia 90 percent suppressed; cited from earlier work.
In data set [4] the test system is P. falciparum Camp (chloroquine-susceptible) and Smith (chloroquine-resistant) strains. The note with it: P. falciparum in vitro; cited from earlier work.
Data set [5] concerns P. falciparum, two Hanian strains. The note with it: P. falciparum in vitro; cited from earlier work.
A further data set relates to SK-MEL-5. Put plainly: NCI 60 cell line panel screening assay (SRB), SK-MEL-5. The class given is cell-based. The note with it: Homo sapiens; SK-MEL-5, melanoma, 48 h; read-out: Log10 GI50 (converted).
The next data set can be described thus: Stability (hydrolysis). The class given is physicochemical.
The test system of the next data set is HCC-2998. Put plainly: NCI 60 cell line panel screening assay (SRB), HCC-2998. The class given is cell-based. The note with it: Homo sapiens, HCC 2998, 48 h, read-out: Log10 LC50 (converted).
The test system of the next data set is IGROVI. Put plainly: NCI 60 cell line panel screening assay (SRB), IGROVI. The class given is cell-based. The note with it: 48 h, read-out: Log10 TGI.
Data set [6] deals with murine keratinocyte cell line PE. Briefly: Growth inhibition of murine keratinocytes (MTT). The class given is cell-based, murine (SENCAR mice). The note with it: 100 nanomolar. As for the experimental part:
To determine the inhibitory effect of the compositions of the present invention on cell proliferation, screening assays were performed on a murine keratinocyte cell line PE. Cell line PE was chosen for its particular sensitivity to the induction of ornithine decarboxylase (ODC) activity by the extensively characterized tumor promoter TPA. […] PE cell culture medium consisted of Eagle's minimal essential medium without calcium chloride (Whittaker Bioproducts, Walkersville, Mass.) supplemented with 8% chelexed fetal calf serum and 1% antibiotic-antimycotic (Gibco BRL) and the addition of CaCl2 to 0.05 mM Ca^++.
MTT [3-(4,5-dimethylthiazol-2-yl)-2,5-diphenyltetraxolium bromide] was purchased from Sigma Chemical Co. (St. Louis, Mo.), and TPA was supplied by L.C. Services (Woburn, Mass.). L-[^14 C]omithine (56 μCi/mol) was from Amersham/Searle Corp. (Arlington Heights, Ill.). Chemical solvents used in all assays of biological activity were of the highest grade commercially available.
Growth Inhibition. Growth curves, shown in FIGS. 1-5, for PE cells treated with calcitriol and the C-10 carbon-substituted dimers 38, 39, 43, 44, 45, 47 and 48, and monomer 27 generated by assay for the reduction of the tetrazolium-based compound MTT, see Charmichael, et al., Cancer Res., 47:936-942 (1987). […] PE cells were seeded at a density of 5,000 cells/well in 50 μL of medium into 96-well microtiter plates. Twelve hours later, the medium was removed, and cells were treated with 100 μL of fresh medium into which the appropriate amount of calcitriol or analog dissolved in dimethyl sulfoxide (DMSO) had been added, with the concentration of DMSO held constant at 0.1%. […] At 24-hour intervals following the initial treatment of the cells with compounds, 0.1 mg (50 μL of a 2 mg/mL solution) of MTT was added to each well. After 4 hours, the MTT was removed and DMSO added to dissolve the blue formazan dye. Using a microtiter plate reader, the A505 was then determined and cell number calculated from blank-subtracted absorbance values.

Like-named read-outs stand apart in the source and are kept apart here.

The term ED50 denotes the dose at which the effect has come halfway, by size or by number of responders. As usually defined, the IC50 is the midpoint of a concentration-inhibition curve. As a reminder, the GI50 is the concentration that inhibits growth by half.

Take `C[C@@H]1CC[C@H]2[C@@H](C)C(=O)O[C@@H]3O[C@@]4(C)CC[C@@H]1[C@]32OO4` [Artemisinin]: the ED50 in the data set with malaria (read-out: ED50 subcutaneous) was 3 mg/kg. The ED90 with malaria (read-out: ED90 subcutaneous) came to 8.5 mg/kg. For the same molecule, in the data set on 60 cell line panel, the anticancer activity entry is given as “very little anticancer activity”. In addition, the solubility in water result in data set [1] is recorded as “insolubility in water”. Moreover, the half-inhibitory concentration (IC50) in data set [2] was 29.8 µM. Besides, the “clinical outcome in malaria patients” value is “clinical cure of all patients” in data set [3] and “used successfully in many thousand malaria patients” in data set [3] (listed as artemisinin). Besides, in the data set on P. berghei, the SD90 was 6.20 mg/kg. In data set [4], the “potency compared to mefloquine” value is “comparable”. For the same molecule, in [5], the “potency compared to chloroquine” value was “comparable”.
Consider `C[C@H]1[C@@H](F)O[C@@H]2O[C@@]3(C)CC[C@H]4[C@H](C)CC[C@@H]1[C@@]24OO3` [Compound VI, 10β-Fluoro-10-deoxoartemisinin], for which the GI50 in the data set with SK-MEL-5 was 0.49 µM. The stability result in “Stability (hydrolysis)” is on record as “stable crystalline solid”. Further, the CC50 in the data set on HCC-2998 was over 100 µM.
Turning to `CC1CCC2C(C)C(CC(=O)c3cccc(C(=O)CC4OC5OC6(C)CCC7C(C)CCC(C4C)C57OO6)c3)OC3OC4(C)CCC1C32OO4` (stereo not drawn) [Dimer 39], the IC (TGI) with IGROVI was over 100 µM. In data set [6], the “antiproliferative activity relative to calcitriol” value was “at least as antiproliferative as calcitriol”.
